From publication PMC11707430, “Novel antibiotics against Staphylococcus aureus without detectable resistance by targeting proton motive force and FtsH” (MedComm, 2025)
In brackets after ≈: the same amount, converted by molar mass.

How the values were obtained:
S. aureus = test: MIC determination by microbroth dilution; type: cell-based, Staphylococcus aureus; details: Staphylococcus aureus; structure-activity relationship of C218-0546 analogs (Figure S1); read-out: MIC
Protocol: Minimal inhibitory concentration (MIC) determination. The detection of MIC was performed by the microbroth dilution method with reference to the previously report by Wang et al^2. Briefly, the fresh bacterial suspension was adjusted to a McF standard equivalent of 0.5 (~1.5 × 10^8 CFU/mL) and then 100-fold diluted with MH broth. Fifty microliters of bacterial suspension with equal volume of serially diluted compounds (1-128 µg/mL) were added into a 96-well cell plate (Corning Costar, the United States) and incubated at 37°C for 16-18 h. The bacterial suspension without compounds was used as a negative control. The lowest concentration that inhibited visible bacterial growth was considered as the value of MIC.

FtsH = FtsH (Staphylococcus aureus, UniProt Q2G0R0); test: Surface plasmon resonance (SPR); type: binding, S. aureus ATCC 43300; details: 25 °C
Protocol: Surface plasmon resonance (SPR). To detect the affinity between the small molecular compounds and FtsH, SPR analyses were performed on a multiple flow cell Biacore T200 instrument (Cytiva, the United States). Briefly, FtsH (35.5 µg/mL in 10 mM sodium acetate buffer, pH= 4.0) was covalently immobilized on a dextran matrix CM5 sensor chip surface in three different flow cells. The excessive active groups on the dextran matrix were blocked using 1 M ethanolamine at the velocity of 10 μL/min for 15 min. The uncoated reference flow cell on the fourth flow cell was prepared on the dextran matrix treated as described above but without any ligand. 1×PBS (pH 7.4) containing 2 mM KH2PO4, 137 mM NaCl, 10 mM Na2HPO4, 2.7 mM KCl and 5%DMSO was used as the running buffer. In the running buffer, a 2-fold serially diluted of compounds was passed over the ligand at a flow rate of 30 µL/min. The sensorgrams were recorded at 25 °C. The response units at the steady state were fitted to the Langmuir equation to yield the Kd values^35.
Protein synthesis and purification. The primers in this study were designed according to the sequence of S. aureus ATCC 43300 genome published on NCBI. […] Finally, the target protein was detected by SDS-PAGE. […]

RAW264.7 = test: Inflammatory factors inhibition; type: cell-based; details: LPS-treated RAW264.7, 16 μg/mL, 12 h
Protocol: Inflammatory factors inhibition by compounds. Cell line of RAW264.7 was cultured in DMEM medium with 10% FBS. After incubation at 37 ℃ 5% CO2 to log phase, the attached cells were washed with 1× PBS and added with 1 μg/mL of LPS. After incubation at 37 ℃ 5% CO2 for 30 min, 16 μg/mL of C218-0546 or STK848198 was added to each well. The cells were further cultured for 12h, and the cell precipitate was collected for qRT-PCR while the supernatant was collected for ELISA.
For gene expression determination. One milliliter of Trizol was added to lysis the cells. Then, the suspension was incubated with 200 μL chloroform for 3 min. After centrifugation at 12000 rpm 4℃ for 15 min, the aqueous phase was removed to RNase-free tubes, and added with equal volume of isopropanol. After centrifugation at 12000 rpm 4℃, the RNA precipitation was collected and wash with 75% ethanol. […] Absorbance at 260nm and 280 nm was detected to determine the RNA concentration and purity. cDNA was synthesized with HiFiScript cDNA Synthesis Kit (CoWin Biosciences, Beijing, China) according to the manufacture’s specification, and UltraSYBR Mixture (2×, CoWin Biosciences, Beijing, China) was used for qPCR determination.
ELISA kit (Proteintech, Wuhan, China) was used for cytokines production quantification. […] Then, 100 μL substrate was added to each well and the absorbance at 450 nm was determined.

Chain of FtsH (Q2G0R0 entry or part of it): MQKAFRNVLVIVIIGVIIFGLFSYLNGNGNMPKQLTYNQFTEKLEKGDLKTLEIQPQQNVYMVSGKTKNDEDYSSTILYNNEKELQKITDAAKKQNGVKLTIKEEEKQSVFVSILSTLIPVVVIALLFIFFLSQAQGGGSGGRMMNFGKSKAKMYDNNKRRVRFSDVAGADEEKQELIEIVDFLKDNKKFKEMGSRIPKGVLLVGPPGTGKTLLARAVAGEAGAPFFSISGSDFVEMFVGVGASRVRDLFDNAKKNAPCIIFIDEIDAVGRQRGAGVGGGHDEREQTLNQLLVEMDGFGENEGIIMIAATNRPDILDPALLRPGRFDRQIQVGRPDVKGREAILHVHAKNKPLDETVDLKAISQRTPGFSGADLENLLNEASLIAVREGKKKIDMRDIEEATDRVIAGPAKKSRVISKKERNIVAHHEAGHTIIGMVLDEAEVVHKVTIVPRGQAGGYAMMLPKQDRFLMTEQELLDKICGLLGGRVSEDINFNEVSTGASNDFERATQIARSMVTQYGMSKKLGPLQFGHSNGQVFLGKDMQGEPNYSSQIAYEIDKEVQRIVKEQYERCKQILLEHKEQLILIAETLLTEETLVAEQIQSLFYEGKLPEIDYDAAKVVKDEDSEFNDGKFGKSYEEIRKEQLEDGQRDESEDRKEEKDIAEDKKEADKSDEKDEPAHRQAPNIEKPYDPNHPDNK

**Q.** With `Cc1nc2c(-c3ccc(Cl)cc3)cnn2c(O)c1Cc1ccccc1` [STK848198] as the compound, how does the MIC (S. aureus) read?
**A.** The MIC was 2 µg/mL (≈ 5.72 µM).

**Q.** And the Kd (FtsH)?
**A.** Its Kd is 31 µM.

**Q.** What about the “inflammatory cytokines production (IL-1β, IL-6, TNFα decreased, IL-10 enhanced)” value (RAW264.7) of the same compound?
**A.** The value was “inhibit inflammatory progress”.
